Consider 31 compounds from patent US20080045537A1, “Chemical Compounds” (priority 2004, published 2008).

A value given as a limit tells only on which side of the number the result lay.

The test has as its system HIV-1 IIIB (T-tropic, CXCR4 utilizing). The test is described as follows: HOS HIV-1 infectivity assay. The format is cell-based. The settings on record: Human immunodeficiency virus 1, IIIB; as determined by the infectivity assay; strain not stated in Table 2; read-out: Activity Level. Summed up: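 Luminescence served as read-out: Steady-Glo luciferase for infected wells, CellTiter-Glo for virus-free wells assessing cytotoxicity. Reporter HOS cells (hCXCR4/hCCR5/hCD4, LTR-luciferase) were preincubated with compound for 1 h, infected with PBL-propagated virus, and cultured 96 h at 37 °C.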
Turning to `CN(Cc1nc2cccc(N3CCN4CCC[C@@H]4C3)c2[nH]1)[C@H]1CCCc2cccnc21` [Example 141, (8S)—N-({4-[(8aR)-hexahydropyrrolo[1,2-a]pyrazin-2(1H)-yl]-1H-benzimidazol-2-yl}methyl)-N-methyl-5,6,7,8-tetrahydro-8-quinolinamine], the IC50 is under 0.1 µM.

Turning to `CCN(Cc1nc2cccc(N3CCN4CCC[C@@H]4C3)c2[nH]1)[C@H]1CCCc2cccnc21` [Example 142, (8S)—N-Ethyl-N-({4-[(8aR)-hexahydropyrrolo[1,2-a]pyrazin-2(1H)-yl]-1H-benzimidazol-2-yl}methyl)-5,6,7,8-tetrahydro-8-quinolinamine], the IC50 was under 0.1 µM.

As for `CCCN(Cc1nc2cccc(N3CCN4CCC[C@@H]4C3)c2[nH]1)[C@H]1CCCc2cccnc21` [Example 143, (8S)—N-({4-[(8aR)-hexahydropyrrolo[1,2-a]pyrazin-2(1H)-yl]-1H-benzimidazol-2-yl}methyl)-N-propyl-5,6,7,8-tetrahydro-8-quinolinamine], the IC50 was under 0.1 µM.

`CN1C[C@H]2C[C@H](C1)CN(c1cccc3nc(CN(C)[C@H]4CCCc5cccnc54)[nH]c13)C2` [Example 144, (8S)—N-methyl-N-({4-[(1R,5R)-7-methyl-3,7-diazabicyclo[3.3.1]non-3-yl]-1H-benzimidazol-2-yl}methyl)-5,6,7,8-tetrahydro-8-quinolinamine]: the IC50 is under 0.1 µM.

Consider `CN1CCN(c2cccc3nc(CN(C4CC4)C4CCCc5cccnc54)[nH]c23)CC1` (stereo not shown) [Example 145, N-Cyclopropyl-N-{[4-(4-methyl-1-piperazinyl)-1H-benzimidazol-2-yl]methyl}-5,6,7,8-tetrahydro-8-quinolinamine], for which the IC50 is under 0.1 µM.

`COc1ccc([C@H](C)N(Cc2nc3cccc(N4CCN(C)CC4)c3[nH]2)[C@H]2CCCc3cccnc32)cc1` [Example 146, (8S)—N-{(1S)-1-[4-(methyloxy)phenyl]ethyl}-N-{[4-(4-methyl-1-piperazinyl)-1H-benzimidazol-2-yl]methyl}-5,6,7,8-tetrahydro-8-quinolinamine]: the IC50 was under 0.1 µM.

For the compound `CN1CCN(c2cccc3nc(CN(CCOCc4ccccc4)[C@H]4CCCc5cccnc54)[nH]c23)CC1` [Example 147], the IC50 was under 0.1 µM.

Turning to `CN1CCN(c2cccc3nc(CN(CCO)[C@H]4CCCc5cccnc54)[nH]c23)CC1` [Example 148, 2-{{[4-(4-Methyl-1-piperazinyl)-1H-benzimidazol-2-yl]methyl}[(8S)-5,6,7,8-tetrahydro-8-quinolinyl]amino}ethanol], the IC50 is under 0.1 µM.

For `CN1CCN(c2cccc3nc(CN(CCCO)[C@H]4CCCc5cccnc54)[nH]c23)CC1` [Example 149, 3-{{[4-(4-Methyl-1-piperazinyl)-1H-benzimidazol-2-yl]methyl}[(8S)-5,6,7,8-tetrahydro-8-quinolinyl]amino}-1-propanol], the IC50 was under 0.1 µM.

As for `CN1CCN(c2cccc3nc(CN(Cc4ccccc4)[C@H]4CCCc5cccnc54)[nH]c23)CC1` [Example 150, (8S)—N-{[4-(4-methyl-1-piperazinyl)-1H-benzimidazol-2-yl]methyl}-N-(phenylmethyl)-5,6,7,8-tetrahydro-8-quinolinamine], the IC50 is under 0.1 µM.

On to `CN1CCN(c2cccc3c2nc(CN(C)C2CCCc4cccnc42)n3C)CC1` (stereo not shown) [Example 152, N-Methyl-N-{[1-methyl-4-(4-methyl-1-piperazinyl)-1H-benzimidazol-2-yl]methyl}-5,6,7,8-tetrahydro-8-quinolinamine], for which the IC50 lay in the range of 0.1 to 0.5 µM.

As to `CN1CCN(c2cccc3nc(CN(C)C4CCCc5cccnc54)n(C)c23)CC1` (stereo not shown) [Example 153, N-Methyl-N-{[1-methyl-7-(4-methyl-1-piperazinyl)-1H-benzimidazol-2-yl]methyl}-5,6,7,8-tetrahydro-8-quinolinamine], the IC50 was under 0.1 µM.

In the case of `CCN(Cc1nc2cccc(N3CCN(C)CC3)c2n1C)C1CCCc2cccnc21` (stereo not shown) [Example 154, N-Ethyl-N-{[1-methyl-7-(4-methyl-1-piperazinyl)-1H-benzimidazol-2-yl]methyl}-5,6,7,8-tetrahydro-8-quinolinamine], the IC50 is under 0.1 µM.

Regarding `CCCN(Cc1nc2cccc(N3CCN(C)CC3)c2n1C)C1CCCc2cccnc21` (stereo not shown) [Example 155, N-{[1-Methyl-7-(4-methyl-1-piperazinyl)-1H-benzimidazol-2-yl]methyl}-N-propyl-5,6,7,8-tetrahydro-8-quinolinamine], the IC50 was under 0.1 µM.

As for `CN1CCN(c2cccc3nc(CN(CC4CC4)C4CCCc5cccnc54)n(C)c23)CC1` (stereo not shown) [Example 156, N-(Cyclopropylmethyl)-N-{[1-methyl-7-(4-methyl-1-piperazinyl)-1H-benzimidazol-2-yl]methyl}-5,6,7,8-tetrahydro-8-quinolinamine], the IC50 was under 0.1 µM.

For `CN(Cc1nc2cccc(N3CCNCC3)c2n1C)[C@H]1CCCc2cccnc21` [Example 159, (8S)—N-methyl-N-{[1-methyl-7-(1-piperazinyl)-1H-benzimidazol-2-yl]methyl}-5,6,7,8-tetrahydro-8-quinolinamine], the IC50 was under 0.1 µM.

As for `CN1CCN(c2cccc3nc(CN(C)[C@H]4CCCc5cccnc54)n(C)c23)CC1` [Example 160, (8S)—N-Methyl-N-{[1-methyl-7-(4-methyl-1-piperazinyl)-1H-benzimidazol-2-yl]methyl}-5,6,7,8-tetrahydro-8-quinolinamine], the IC50 is under 0.1 µM.

Take `CN1CCN(c2cccc3nc(CN(C)[C@@H]4CCCc5cccnc54)n(C)c23)CC1` [Example 161, (8R)—N-Methyl-N-{[1-methyl-7-(4-methyl-1-piperazinyl)-1H-benzimidazol-2-yl]methyl}-5,6,7,8-tetrahydro-8-quinolinamine]: the IC50 was under 0.1 µM.

`CCn1c(CN(C)[C@H]2CCCc3cccnc32)nc2cccc(N3CCN(C)CC3)c21` [Example 164, (8S)—N-{[1-ethyl-7-(4-methyl-1-piperazinyl)-1H-benzimidazol-2-yl]methyl}-N-methyl-5,6,7,8-tetrahydro-8-quinolinamine]: the IC50 is under 0.1 µM.

For `CCn1c(CN(Cc2ccccc2)[C@H]2CCCc3cccnc32)nc2cccc(N3CCN(C)CC3)c21` [Example 165, (8S)—N-{[1-Ethyl-7-(4-methyl-1-piperazinyl)-1H-benzimidazol-2-yl]methyl}-N-(Phenylmethyl)-5,6,7,8-tetrahydro-8-quinolinamine], the IC50 is under 0.1 µM.

Turning to `CCN(Cc1nc2cccc(N3CCN(C)CC3)c2n1CC)[C@H]1CCCc2cccnc21` [Example 166, (8S)—N-Ethyl-N-{[1-ethyl-7-(4-methyl-1-piperazinyl)-1H-benzimidazol-2-yl]methyl}-5,6,7,8-tetrahydro-8-quinolinamine], the IC50 is under 0.1 µM.

Turning to `CCN(Cc1nc2cccc(N3CCN(C)CC3)c2n1C)[C@H]1CCCc2cccnc21` [Example 167, (8S)—N-Ethyl-N-{[1-methyl-7-(4-methyl-1-piperazinyl)-1H-benzimidazol-2-yl]methyl}-5,6,7,8-tetrahydro-8-quinolinamine], the IC50 is under 0.1 µM.

For the compound `CCCN(Cc1nc2cccc(N3CCN(C)CC3)c2n1C)[C@H]1CCCc2cccnc21` [Example 168, (8S)—N-{[1-Methyl-7-(4-methyl-1-piperazinyl)-1H-benzimidazol-2-yl]methyl}-N-propyl-5,6,7,8-tetrahydro-8-quinolinamine], the IC50 is under 0.1 µM.

As to `CN1CCN(c2cccc3nc(CN(Cc4ccccc4)[C@H]4CCCc5cccnc54)n(C)c23)CC1` [Example 169, (8S)—N-{[1-Methyl-7-(4-methyl-1-piperazinyl)-1H-benzimidazol-2-yl]methyl}-N-(Phenylmethyl)-5,6,7,8-tetrahydro-8-quinolinamine], the IC50 is under 0.1 µM.

`CN1CCN(c2c(Cl)ccc3nc(CN(C)C4CCCc5cccnc54)[nH]c23)CC1` (stereo not shown) [Example 170, N-{[5-Chloro-4-(4-methyl-1-piperazinyl)-1H-benzimidazol-2-yl]methyl}-N-methyl-5,6,7,8-tetrahydro-8-quinolinamine]: the IC50 was under 0.1 µM.

For the compound `CN1CCN(c2ccc(Cl)c3nc(CN(C)C4CCCc5cccnc54)[nH]c23)CC1` (stereo not shown) [Example 171, N-{[4-Chloro-7-(4-methyl-1-piperazinyl)-1H-benzimidazol-2-yl]methyl}-N-methyl-5,6,7,8-tetrahydro-8-quinolinamine], the IC50 is under 0.1 µM.

With `C[C@H](c1nc2c(N3CCN(C)CC3)cccc2[nH]1)N(C)C1CCCc2cccnc21` (stereo partly drawn) [Example 172, N-Methyl-N-{(1R)-1-[4-(4-methyl-1-piperazinyl)-1H-benzimidazol-2-yl]ethyl}-5,6,7,8-tetrahydro-8-quinolinamine], the IC50 was under 0.1 µM.

As to `CN1CCN(c2cccc3[nH]c([C@H](COCc4ccccc4)N(C)C4CCCc5cccnc54)nc23)CC1` (stereo partly drawn) [Example 176, N-Methyl-N-{(1R)-1-[4-(4-methyl-1-piperazinyl)-1H-benzimidazol-2-yl]-2-[(phenylmethyl)oxy]ethyl}-5,6,7,8-tetrahydro-8-quinolinamine], the IC50 is under 0.1 µM.

Regarding `CN1CCN(c2cccc3[nH]c([C@@H](COCc4ccccc4)N(C)C4CCCc5cccnc54)nc23)CC1` (stereo partly drawn) [Example 177, N-Methyl-N-{(1S)-1-[4-(4-methyl-1-piperazinyl)-1H-benzimidazol-2-yl]-2-[(phenylmethyl)oxy]ethyl}-5,6,7,8-tetrahydro-8-quinolinamine], the IC50 was under 0.1 µM.

For `Cn1c(CN(CCO)[C@H]2CCCc3cccnc32)nc2cccc(N3CCNCC3)c21` [Example 178, 2-{{[1-Methyl-7-(1-piperazinyl)-1H-benzimidazol-2-yl]methyl}[(8S)-5,6,7,8-tetrahydro-8-quinolinyl]amino}ethanol], the IC50 was under 0.1 µM.

Take `Cn1c(CN(CCCO)[C@H]2CCCc3cccnc32)nc2cccc(N3CCNCC3)c21` [Example 179, 3-{{[1-Methyl-7-(1-piperazinyl)-1H-benzimidazol-2-yl]methyl}[(8S)-5,6,7,8-tetrahydro-8-quinolinyl]amino-}1-propanol]: the IC50 is under 0.1 µM.
